# From PubChem BioAssay AID248 (DTP/NCI, 2004)
# Several values for one entry are separate records, joined by “and”; a condition that tells them apart may be missing. Equal values may be shown once. Inconclusive results and toxic doses are left out.
# Tested on: L1210 leukemia ip in BDF1 mice, survival T/C
# Assay: NCI In Vivo Anticancer Drug Screen. Data for tumor model L1210 Leukemia (intraperitoneal) in B6D2F1 (BDF1) mice
# Conditions: higher = longer survival
# In short: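 Tumor cells were implanted, animals were treated, and survival was followed. The result divides the treated measurement by the vehicle-control measurement.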
# [1] = endpoint: mean survival time, dose: 100.0 mg/kg/injection, schedule: Q01DX001 (ip), vehicle: saline
# [2] = endpoint: mean survival time, dose: 200.0 mg/kg/injection, schedule: Q01DX001 (ip), vehicle: saline
smiles,measurement,setting,value
CC1=C2[C@H]3OC(=O)[C@H](C)[C@@H]3CC[C@@]2(C)C=CC1=O,T/C,"endpoint: mean survival time, dose: 100.0 mg/kg/injection, schedule: Q01DX001 (ip), vehicle: other",103 % of control
same,T/C,"endpoint: mean survival time, dose: 200.0 mg/kg/injection, schedule: Q01DX001 (ip), vehicle: other",95 % of control
CCN(CC)CCNc1ccc(CO)c2sc3ccccc3c(=O)c12,T/C,"endpoint: mean survival time, dose: 8.0 mg/kg/injection, schedule: Q01DX009 (ip), vehicle: clinical formulation",108 % of control
same,T/C,"endpoint: mean survival time, dose: 8.0 mg/kg/injection, schedule: Q01DX009 (ip), vehicle: water",106 % of control
same,T/C,"endpoint: mean survival time, dose: 16.0 mg/kg/injection, schedule: Q01DX009 (ip), vehicle: clinical formulation",112 % of control
same,T/C,"endpoint: mean survival time, dose: 16.0 mg/kg/injection, schedule: Q01DX009 (ip), vehicle: water",92 % of control
same,T/C,"endpoint: mean survival time, dose: 18.75 mg/kg/injection, schedule: Q01DX009 (ip), vehicle: saline",118 % of control
same,T/C,"endpoint: mean survival time, dose: 22.0 mg/kg/injection, schedule: Q01DX009 (ip), vehicle: saline",115 % of control
same,T/C,"endpoint: mean survival time, dose: 32.0 mg/kg/injection, schedule: Q01DX009 (ip), vehicle: clinical formulation",121 % of control
same,T/C,"endpoint: mean survival time, dose: 32.0 mg/kg/injection, schedule: Q01DX009 (ip), vehicle: water",117 % of control
same,T/C,"endpoint: mean survival time, dose: 35.0 mg/kg/injection, schedule: Q01DX009 (ip), vehicle: saline",123 % of control
same,T/C,"endpoint: mean survival time, dose: 50.0 mg/kg/injection, schedule: Q04DX003 (ip), vehicle: saline",90 % of control
same,T/C,"endpoint: mean survival time, dose: 64.0 mg/kg/injection, schedule: Q01DX009 (ip), vehicle: clinical formulation",164 % of control
same,T/C,"endpoint: mean survival time, dose: 64.0 mg/kg/injection, schedule: Q01DX009 (ip), vehicle: water",157 % of control
same,T/C,"endpoint: mean survival time, dose: 81.0 mg/kg/injection, schedule: Q01DX009 (ip), vehicle: Klucel (hydroxypropylcellulose) (HPC)",120 % of control
same,T/C,[1],102 % of control
same,T/C,"endpoint: mean survival time, dose: 100.0 mg/kg/injection, schedule: Q04DX003 (ip), vehicle: saline",106 % of control
same,T/C,"endpoint: mean survival time, dose: 112.0 mg/kg/injection, schedule: Q01DX009 (ip), vehicle: saline",98 % of control and 105 % of control
same,T/C,"endpoint: mean survival time, dose: 122.0 mg/kg/injection, schedule: Q01DX009 (ip), vehicle: Klucel (hydroxypropylcellulose) (HPC)",112 % of control
same,T/C,"endpoint: mean survival time, dose: 128.0 mg/kg/injection, schedule: Q01DX009 (ip), vehicle: clinical formulation",91 % of control
same,T/C,"endpoint: mean survival time, dose: 128.0 mg/kg/injection, schedule: Q01DX009 (ip), vehicle: water",110 % of control
same,T/C,"endpoint: mean survival time, dose: 150.0 mg/kg/injection, schedule: Q01DX009 (ip), vehicle: saline",93 % of control
same,T/C,[2],110 % of control
same,T/C,"endpoint: mean survival time, dose: 200.0 mg/kg/injection, schedule: Q01DX009 (ip), vehicle: Klucel (hydroxypropylcellulose) (HPC)",120 % of control
same,T/C,"endpoint: mean survival time, dose: 200.0 mg/kg/injection, schedule: Q04DX003 (ip), vehicle: saline",173 % of control
same,T/C,"endpoint: mean survival time, dose: 264.0 mg/kg/injection, schedule: Q01DX001 (ip), vehicle: carboxymethylcellulose (CMC)",112 % of control
same,T/C,"endpoint: mean survival time, dose: 264.0 mg/kg/injection, schedule: Q01DX009 (ip), vehicle: carboxymethylcellulose (CMC)",124 % of control
same,T/C,"endpoint: mean survival time, dose: 300.0 mg/kg/injection, schedule: Q04DX003 (ip), vehicle: saline",184 % of control
same,T/C,"endpoint: mean survival time, dose: 400.0 mg/kg/injection, schedule: Q01DX001 (ip), vehicle: carboxymethylcellulose (CMC)",157 % of control
same,T/C,"endpoint: median survival time, dose: 4.0 mg/kg/injection, schedule: Q01DX009 (ip), vehicle: saline",90 % of control
same,T/C,"endpoint: median survival time, dose: 4.0 mg/kg/injection, schedule: Q03HX016 (ip), vehicle: saline",100 % of control
same,T/C,"endpoint: median survival time, dose: 4.0 mg/kg/injection, schedule: Q03HX024 (ip), vehicle: saline",100 % of control
same,T/C,"endpoint: median survival time, dose: 8.0 mg/kg/injection, schedule: Q01DX009 (ip), vehicle: saline",100 % of control
same,T/C,"endpoint: median survival time, dose: 8.0 mg/kg/injection, schedule: Q03HX008 (ip), vehicle: saline",100 % of control
same,T/C,"endpoint: median survival time, dose: 8.0 mg/kg/injection, schedule: Q03HX016 (ip), vehicle: saline",100 % of control
same,T/C,"endpoint: median survival time, dose: 8.0 mg/kg/injection, schedule: Q03HX024 (ip), vehicle: saline",105 % of control
same,T/C,"endpoint: median survival time, dose: 16.0 mg/kg/injection, schedule: Q01DX009 (ip), vehicle: saline",110 % of control
same,T/C,"endpoint: median survival time, dose: 16.0 mg/kg/injection, schedule: Q01DX009 (sc), vehicle: saline",100 % of control
same,T/C,"endpoint: median survival time, dose: 16.0 mg/kg/injection, schedule: Q03HX008 (ip), vehicle: saline",110 % of control
same,T/C,"endpoint: median survival time, dose: 16.0 mg/kg/injection, schedule: Q03HX016 (ip), vehicle: saline",100 % of control
same,T/C,"endpoint: median survival time, dose: 32.0 mg/kg/injection, schedule: Q01DX001 (ip), vehicle: saline",100 % of control
same,T/C,"endpoint: median survival time, dose: 32.0 mg/kg/injection, schedule: Q01DX009 (oral), vehicle: saline",100 % of control and 120 % of control
same,T/C,"endpoint: median survival time, dose: 32.0 mg/kg/injection, schedule: Q01DX009 (sc), vehicle: saline",115 % of control
same,T/C,"endpoint: median survival time, dose: 32.0 mg/kg/injection, schedule: Q04DX003 (ip), vehicle: saline",100 % of control
same,T/C,"endpoint: median survival time, dose: 32.0 mg/kg/injection, schedule: Q08DX002 (ip), vehicle: saline",100 % of control
same,T/C,"endpoint: median survival time, dose: 64.0 mg/kg/injection, schedule: Q01DX001 (ip), vehicle: saline",100 % of control
same,T/C,"endpoint: median survival time, dose: 64.0 mg/kg/injection, schedule: Q01DX001 (sc), vehicle: saline",100 % of control
same,T/C,"endpoint: median survival time, dose: 64.0 mg/kg/injection, schedule: Q01DX009 (oral), vehicle: saline",115 % of control
same,T/C,"endpoint: median survival time, dose: 64.0 mg/kg/injection, schedule: Q04DX003 (ip), vehicle: saline",110 % of control
same,T/C,"endpoint: median survival time, dose: 64.0 mg/kg/injection, schedule: Q08DX002 (ip), vehicle: saline",100 % of control
same,T/C,"endpoint: median survival time, dose: 128.0 mg/kg/injection, schedule: Q01DX001 (ip), vehicle: saline",110 % of control
same,T/C,"endpoint: median survival time, dose: 128.0 mg/kg/injection, schedule: Q01DX001 (sc), vehicle: saline",105 % of control
same,T/C,"endpoint: median survival time, dose: 128.0 mg/kg/injection, schedule: Q01DX009 (oral), vehicle: saline",120 % of control
same,T/C,"endpoint: median survival time, dose: 128.0 mg/kg/injection, schedule: Q01DX009 (sc), vehicle: saline",95 % of control
same,T/C,"endpoint: median survival time, dose: 256.0 mg/kg/injection, schedule: Q01DX001 (oral), vehicle: saline",110 % of control and 120 % of control
same,T/C,"endpoint: median survival time, dose: 256.0 mg/kg/injection, schedule: Q01DX009 (oral), vehicle: saline",100 % of control
same,T/C,"endpoint: median survival time, dose: 512.0 mg/kg/injection, schedule: Q01DX001 (oral), vehicle: saline",110 % of control and 120 % of control
CN(C)C(=S)SCC(N)=O,T/C,"endpoint: mean survival time, dose: 100.0 mg/kg/injection, schedule: Q01DX001 (ip), vehicle: Klucel (hydroxypropylcellulose) (HPC)",103 % of control
same,T/C,"endpoint: mean survival time, dose: 200.0 mg/kg/injection, schedule: Q01DX001 (ip), vehicle: Klucel (hydroxypropylcellulose) (HPC)",100 % of control
same,T/C,"endpoint: mean survival time, dose: 400.0 mg/kg/injection, schedule: Q01DX001 (ip), vehicle: Klucel (hydroxypropylcellulose) (HPC)",103 % of control
CC12CCC(=O)C=C1CCC1C2C(O)CC2(C)C1CCC2(O)C(=O)CSc1ncnc2nc[nH]c12 (stereo not given),T/C,"endpoint: mean survival time, dose: 50.0 mg/kg/injection, schedule: Q01DX001 (sc), vehicle: steriod suspending solution",96 % of control
same,T/C,"endpoint: mean survival time, dose: 100.0 mg/kg/injection, schedule: Q01DX001 (sc), vehicle: steriod suspending solution",94 % of control and 108 % of control
same,T/C,"endpoint: mean survival time, dose: 200.0 mg/kg/injection, schedule: Q01DX001 (sc), vehicle: steriod suspending solution",105 % of control and 108 % of control
same,T/C,"endpoint: mean survival time, dose: 400.0 mg/kg/injection, schedule: Q01DX001 (sc), vehicle: steriod suspending solution",97 % of control and 102 % of control
O=C(CCCC(=O)NNC(=O)Nc1ccc(N=Nc2ccccc2)cc1)NNC(=O)Nc1ccc(N=Nc2ccccc2)cc1,T/C,"endpoint: mean survival time, dose: 50.0 mg/kg/injection, schedule: Q01DX001 (ip), vehicle: saline",93 % of control
same,T/C,[1],102 % of control
same,T/C,[2],96 % of control
same,T/C,"endpoint: mean survival time, dose: 400.0 mg/kg/injection, schedule: Q01DX001 (ip), vehicle: saline",100 % of control
CC1=C(c2ccccc2)C2(c3ccccc3)C3(C)C(=O)C(C)(C(c4ccccc4)C3c3ccccc3)C2(C)C1=O (stereo not given),T/C,"endpoint: mean survival time, dose: 100.0 mg/kg/injection, schedule: Q04DX002 (ip), vehicle: gum acacia",97 % of control
same,T/C,"endpoint: mean survival time, dose: 200.0 mg/kg/injection, schedule: Q04DX002 (ip), vehicle: gum acacia",91 % of control
same,T/C,"endpoint: mean survival time, dose: 400.0 mg/kg/injection, schedule: Q04DX002 (ip), vehicle: gum acacia",94 % of control
CCCCN(C)/N=N/c1nc[nH]c1C#N,T/C,"endpoint: mean survival time, dose: 75.0 mg/kg/injection, schedule: Q01DX001 (ip), vehicle: other",105 % of control
same,T/C,"endpoint: mean survival time, dose: 75.0 mg/kg/injection, schedule: Q01DX009 (ip), vehicle: saline with Tween-80",103 % of control
same,T/C,"endpoint: mean survival time, dose: 75.0 mg/kg/injection, schedule: Q04DX003 (ip), vehicle: saline with Tween-80",105 % of control
same,T/C,"endpoint: mean survival time, dose: 150.0 mg/kg/injection, schedule: Q01DX001 (ip), vehicle: other",102 % of control
same,T/C,"endpoint: mean survival time, dose: 150.0 mg/kg/injection, schedule: Q01DX009 (ip), vehicle: saline with Tween-80",105 % of control
same,T/C,"endpoint: mean survival time, dose: 150.0 mg/kg/injection, schedule: Q04DX003 (ip), vehicle: saline with Tween-80",96 % of control
same,T/C,"endpoint: mean survival time, dose: 300.0 mg/kg/injection, schedule: Q01DX001 (ip), vehicle: other",101 % of control
same,T/C,"endpoint: mean survival time, dose: 300.0 mg/kg/injection, schedule: Q01DX009 (ip), vehicle: saline with Tween-80",109 % of control
same,T/C,"endpoint: mean survival time, dose: 300.0 mg/kg/injection, schedule: Q04DX003 (ip), vehicle: saline with Tween-80",96 % of control
